Entries after “also recorded” stand apart in the source; their conditions may differ.
System: 5XFAD mice
Experiment: Synaptic density, spine density and LTP in 5XFAD mice
Type: in vivo, mouse
Text: A. Representative electron microscopy of the synaptic structures. Arrows indicate the synapses. B. Quantitative analysis of the synaptic density in vehicle—and compound 11-treated 5XFAD mice. Data are shown as mean ±SEM (n=3 mice per group). * p <0.01. C. […] Scale bar, 5 μm. D. Quantitative analysis of the spine density. […] E. Long-term potentiation (LTP) of fEPSPs was induced by 3× TBS (4 pulses at 100 Hz, repeated 3 times with a 200-ms interval). Shown traces are representative fEPSPs recorded at the time point 1 and 2 (vehicle treated), 3 and 4 (compound 11-treated mouse). […] Data are presented as mean±SEM. *p<0.05 vs vehicle-treated mice. F. Synaptic transmission assessed by input/output (I/O) relation between stimuli intensity and fEPSP slope. I/O curves obtained in hippocampal slices prepared from vehicle- and compound 11-treated 5XFAD mice.
Synaptic dysfunction is the early feature of AD and is believed to be the basis of cognitive impairment. 5XFAD mice show decreased synaptic density compared to non-transgenic control mice. […] The density of dendritic spines along individual dendrites of pyramidal neurons was assessed by Golgi stain. […] Long-term potentiation (LTP) is a measure of synaptic plasticity that underlies learning and memory. 5XFAD mice have decreased LTP magnitude at Schaffer collateral-CA1 pathways.
Synaptic density was determined by electron microscopy as described previously (22). After deep anesthesia, mice were perfused transcardially with 2% glutaraldehyde and 3% paraformaldehyde in PBS. […]
Electrophysiological analysis was carried out as previously described (23). […] The field excitatory post-synaptic potentials (fEPSPs) were recorded in CA1 stratum radiatum by a glass microelectrode filled with a-CSF with resistance of 3-4 MEI The stimulation output (Master-8; AMPI, Jerusalem) was controlled by the trigger function of an EPC9 amplifier (HEKA Elektronik, Lambrecht, Germany). fEPSPs were recorded under current-clamp mode. […] The magnitudes of LTP are expressed as the mean percentage of baseline fEPSP initial slope. […]

In the case of `Nc1ccc(N2CCOCC2)c2nonc12` [Compound 11], the “density of dendritic spines (Golgi stain)” value (5XFAD mice) is reported as “increased; also recorded: reversed”, the “density of synapse (electron microscopy)” value (CA1 area, 5XFAD mice) is reported as “notably increased” and the “long-term potentiation (LTP) magnitude” value (Schaffer collateral-CA1, 5XFAD mice) is reported as “significantly reversed the LTP deficits; also recorded: enhanced”.

Reference: US20170029388A1, “Treatment of Neurodegenerative Diseases with Asparagine Endopeptidase (AEP) Inhibitors and Compositions Related Thereto” (INTERCONTINENTAL GREAT BRANDS LLC, priority 2014, published 2017)
